Patent US8822500B2, “Tyrosine kinase inhibitors” (Chembridge Corporation, priority 2008, dated 2014)
Like-named read-outs stand apart in the source and are kept apart here.

Columns and labels:
U937 lymphoma cells = assay: Cellular assay, 3 day cell viability (WST-1); assay type: cell-based; details: Homo sapiens, U-937, 72 h
SUDHL-1 lymphoma cells = assay: Cellular assay, 3 day cell viability (WST-1); assay type: cell-based; details: Homo sapiens, SU-DHL-1, 72 h
NB-1 neuroblastoma cells = assay: Cellular assay, 3 day cell viability (WST-1); assay type: cell-based; details: 72 h
[1] = Caco-2 cell permeation study; assay type: in vitro ADME; details: human; for Papp A→B at 2 h, 10 μM: Caco-2, pH 6.5, 10 μM, apical pH 6.5, 2 h; for Papp B→A at 2 h, 10 μM: Caco-2, pH 7.4, 10 μM, basolateral pH 7.4, 2 h;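 for all read-outs here: Caco-2 monolayers grown for 21–28 days with integrity confirmed by TEER, apical buffer HBSS with MES, basolateral buffer HBSS with HEPES, compound levels quantified by LC/MS/MS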
Caco-2 cells = assay: Caco-2 cell permeation study; assay type: in vitro ADME; details: 10 μM; for Papp (10−6 cm/sec) A to B: apical pH 6.5, 2 h;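 for all read-outs here: Caco-2 monolayers grown for 21–28 days with integrity confirmed by TEER, apical buffer HBSS with MES, basolateral buffer HBSS with HEPES, compound levels quantified by LC/MS/MS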
[2] = Rat pharmacokinetics / bioavailability; assay type: in vivo; details: male, Sprague-Dawley, plasma
ALK = ALK (Homo sapiens (Human), UniProt Q9UM73); assay: In vitro kinase activity assay (LANCE TR-FRET); assay type: biochemical;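 note: kinase reactions with ATP and a poly-GT peptide substrate, phosphorylated product read by time-resolved FRET, 11-point curve from 10^−11 to 10^−5 M, DMSO as negative control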
ALK, sequence (Q9UM73 19-1620): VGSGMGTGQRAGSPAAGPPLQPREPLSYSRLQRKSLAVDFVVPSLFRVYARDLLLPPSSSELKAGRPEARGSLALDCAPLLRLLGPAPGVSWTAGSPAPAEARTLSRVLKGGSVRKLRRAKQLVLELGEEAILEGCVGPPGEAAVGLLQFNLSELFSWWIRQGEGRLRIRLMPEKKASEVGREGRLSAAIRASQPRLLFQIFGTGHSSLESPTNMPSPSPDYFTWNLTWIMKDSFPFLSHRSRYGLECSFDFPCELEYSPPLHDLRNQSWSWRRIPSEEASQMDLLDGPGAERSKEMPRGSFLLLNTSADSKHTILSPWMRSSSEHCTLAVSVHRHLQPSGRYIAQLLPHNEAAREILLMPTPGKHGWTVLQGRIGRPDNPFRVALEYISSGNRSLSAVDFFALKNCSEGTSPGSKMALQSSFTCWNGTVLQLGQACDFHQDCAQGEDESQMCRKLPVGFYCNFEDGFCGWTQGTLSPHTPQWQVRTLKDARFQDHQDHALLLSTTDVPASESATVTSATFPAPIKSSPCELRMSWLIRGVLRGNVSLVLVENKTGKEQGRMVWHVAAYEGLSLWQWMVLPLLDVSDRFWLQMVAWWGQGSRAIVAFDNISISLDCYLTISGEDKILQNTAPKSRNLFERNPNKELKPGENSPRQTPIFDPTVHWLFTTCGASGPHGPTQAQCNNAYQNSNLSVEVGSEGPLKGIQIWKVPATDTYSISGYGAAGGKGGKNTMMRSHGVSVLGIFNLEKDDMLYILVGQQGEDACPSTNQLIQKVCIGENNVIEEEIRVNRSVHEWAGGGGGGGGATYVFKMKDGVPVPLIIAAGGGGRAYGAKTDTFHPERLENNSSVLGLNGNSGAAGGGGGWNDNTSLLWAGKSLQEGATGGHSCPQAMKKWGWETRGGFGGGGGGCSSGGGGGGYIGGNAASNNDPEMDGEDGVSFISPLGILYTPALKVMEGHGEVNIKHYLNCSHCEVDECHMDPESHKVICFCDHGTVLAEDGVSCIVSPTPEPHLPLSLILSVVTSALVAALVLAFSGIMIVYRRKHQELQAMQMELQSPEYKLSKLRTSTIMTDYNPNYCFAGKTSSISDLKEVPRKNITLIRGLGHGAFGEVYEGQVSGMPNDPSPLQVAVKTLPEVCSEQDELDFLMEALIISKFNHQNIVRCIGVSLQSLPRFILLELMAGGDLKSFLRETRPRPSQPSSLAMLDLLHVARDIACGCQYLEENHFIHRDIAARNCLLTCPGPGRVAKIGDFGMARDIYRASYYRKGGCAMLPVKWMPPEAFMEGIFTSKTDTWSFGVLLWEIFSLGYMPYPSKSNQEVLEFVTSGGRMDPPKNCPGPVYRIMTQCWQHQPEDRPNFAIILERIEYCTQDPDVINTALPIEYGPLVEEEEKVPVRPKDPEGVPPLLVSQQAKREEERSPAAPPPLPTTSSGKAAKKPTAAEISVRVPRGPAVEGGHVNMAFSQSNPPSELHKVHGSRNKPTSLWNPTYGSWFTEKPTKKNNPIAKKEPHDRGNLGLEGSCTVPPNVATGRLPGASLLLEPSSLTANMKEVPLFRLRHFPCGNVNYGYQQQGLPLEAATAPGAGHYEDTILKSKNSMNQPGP

INSR = INSR (Homo sapiens (Human), UniProt P06213); assay: In vitro kinase activity assay (LANCE TR-FRET); assay type: biochemical
K299 lymphoma cells = assay: Cellular assay, 3 day cell viability (WST-1); assay type: cell-based; details: 72 h, 3 days
ALK (WT) = ALK (WT) (Homo sapiens (Human), UniProt Q9UM73); assay: Cell free kinase assay (Carna Biosciences kinases); assay type: biochemical
EML4-ALK BaF3 cells = assay: BaF3 stables cell viability (WST-1)
TrkA = TrkA (Homo sapiens (Human), UniProt P04629); assay: In vitro kinase activity assay (LANCE TR-FRET); assay type: biochemical;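 note: kinase reaction with poly-GT peptide substrate and ATP, phosphorylated product quantified by time-resolved FRET, eleven-point dose curves from 10^−11 to 10^−5 M in triplicate, DMSO as negative control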
TrkA, sequence (P04629 33-796): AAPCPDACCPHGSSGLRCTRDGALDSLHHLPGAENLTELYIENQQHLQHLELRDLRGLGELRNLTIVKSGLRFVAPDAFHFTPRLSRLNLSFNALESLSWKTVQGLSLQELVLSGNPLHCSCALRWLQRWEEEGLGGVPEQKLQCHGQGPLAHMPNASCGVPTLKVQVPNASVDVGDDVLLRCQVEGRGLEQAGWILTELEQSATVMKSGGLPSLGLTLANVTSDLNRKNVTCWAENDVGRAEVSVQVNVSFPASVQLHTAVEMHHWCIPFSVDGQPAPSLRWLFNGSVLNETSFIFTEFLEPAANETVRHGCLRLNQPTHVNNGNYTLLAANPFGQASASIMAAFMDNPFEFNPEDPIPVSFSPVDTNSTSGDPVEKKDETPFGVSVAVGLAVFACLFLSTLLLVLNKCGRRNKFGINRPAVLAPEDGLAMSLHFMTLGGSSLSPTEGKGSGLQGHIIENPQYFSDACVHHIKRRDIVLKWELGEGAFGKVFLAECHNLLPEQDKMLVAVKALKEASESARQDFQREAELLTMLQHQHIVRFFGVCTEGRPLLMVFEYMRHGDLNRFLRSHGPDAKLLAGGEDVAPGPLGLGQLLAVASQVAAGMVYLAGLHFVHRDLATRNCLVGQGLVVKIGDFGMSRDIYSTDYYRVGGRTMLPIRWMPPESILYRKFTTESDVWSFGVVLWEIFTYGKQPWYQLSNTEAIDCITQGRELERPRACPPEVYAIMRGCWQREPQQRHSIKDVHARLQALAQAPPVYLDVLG

ROS = ROS (Homo sapiens (Human), UniProt P08922); assay: In vitro kinase activity assay (LANCE TR-FRET); assay type: biochemical; details: read-out: ROS (nM) IC50
RET = RET (Homo sapiens (Human), UniProt P07949); assay: In vitro kinase activity assay (LANCE TR-FRET); assay type: biochemical; details: read-out: RET (nM) IC50
cMET = cMET (Homo sapiens (Human), UniProt P08581); assay: In vitro kinase activity assay (LANCE TR-FRET); assay type: biochemical
[3] = molecular target: T1, hERG (human ether-a-go-go related gene) potassium channel (Homo sapiens (Human), UniProt Q12809); assay: hERG potassium channel current, automated patch clamp (PatchXpress 7000A);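 note: Four-point series of 0.3, 3, 10 and 30 µM, two cells recorded per concentration, 5 min exposure at each level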
T1 sequence (Q12809 whole entry): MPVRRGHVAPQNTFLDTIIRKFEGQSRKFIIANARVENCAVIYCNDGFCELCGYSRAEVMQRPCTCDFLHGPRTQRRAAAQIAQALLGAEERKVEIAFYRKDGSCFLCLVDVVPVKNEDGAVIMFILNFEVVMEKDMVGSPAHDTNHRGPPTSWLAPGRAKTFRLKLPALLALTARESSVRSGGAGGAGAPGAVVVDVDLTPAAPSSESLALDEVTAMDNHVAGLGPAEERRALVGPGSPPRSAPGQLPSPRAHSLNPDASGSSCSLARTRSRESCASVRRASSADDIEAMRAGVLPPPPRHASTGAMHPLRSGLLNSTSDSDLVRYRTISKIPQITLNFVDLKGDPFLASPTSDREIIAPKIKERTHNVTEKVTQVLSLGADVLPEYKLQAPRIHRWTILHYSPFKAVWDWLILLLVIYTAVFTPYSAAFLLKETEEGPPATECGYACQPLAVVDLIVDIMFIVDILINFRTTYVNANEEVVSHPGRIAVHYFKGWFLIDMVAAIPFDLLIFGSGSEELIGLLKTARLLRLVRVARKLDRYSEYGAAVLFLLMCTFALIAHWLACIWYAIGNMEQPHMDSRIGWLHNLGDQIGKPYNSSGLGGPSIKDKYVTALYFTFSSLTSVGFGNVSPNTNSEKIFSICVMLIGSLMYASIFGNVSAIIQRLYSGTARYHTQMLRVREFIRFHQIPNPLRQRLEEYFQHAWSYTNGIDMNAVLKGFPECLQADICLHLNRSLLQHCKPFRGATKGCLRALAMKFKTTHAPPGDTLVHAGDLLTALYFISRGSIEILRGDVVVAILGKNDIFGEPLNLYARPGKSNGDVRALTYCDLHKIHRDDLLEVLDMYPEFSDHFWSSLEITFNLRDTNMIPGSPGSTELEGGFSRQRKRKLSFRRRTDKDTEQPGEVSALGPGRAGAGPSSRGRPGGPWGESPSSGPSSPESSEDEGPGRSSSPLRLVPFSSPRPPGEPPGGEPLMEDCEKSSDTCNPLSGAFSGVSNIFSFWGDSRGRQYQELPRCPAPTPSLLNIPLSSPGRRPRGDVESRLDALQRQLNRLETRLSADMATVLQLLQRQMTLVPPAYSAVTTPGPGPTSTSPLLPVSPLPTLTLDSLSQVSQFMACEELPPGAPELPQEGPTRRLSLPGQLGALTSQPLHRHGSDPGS

[4] = molecular target: T1, hERG (human ether-a-go-go related gene) potassium channel; details: 5 min
hERG potassium channel = hERG potassium channel (Homo sapiens (Human), UniProt Q12809); assay: in vitro
hERG potassium channel, sequence (Q12809 whole entry): as above

IGF1R = IGF1R (Homo sapiens (Human), UniProt P08069); assay: In vitro kinase activity assay (LANCE TR-FRET); assay type: biochemical
[5] = Metabolic stability, Phase I microsome reactions; assay type: in vitro ADME, mouse; details: mouse, liver microsomes, pH 7.4, Phase I only, 1.0 mg/ml microsomes, read-out: Mouse LM-P1 Half-life
in vitro [6] = details: human, microsomes
in vitro [7] = details: rat, microsomes
TrkB = TrkB (Homo sapiens (Human), UniProt Q16620); assay: In vitro kinase activity assay (LANCE TR-FRET); assay type: biochemical; details: read-out: GTx-TrKB IC50
TrkC = TrkC (Homo sapiens (Human), UniProt Q16288); assay: In vitro kinase activity assay (LANCE TR-FRET); assay type: biochemical; details: read-out: GTx-TrKC IC50
[8] = microsomes, 0.5 μM, pH 7.4
[9] = system: EML4-ALK C1156Y BaF3 cells; assay: BaF3 stables cell viability (WST-1); details: read-out: BaF3 Stables IC50 nM C1156Y; EML4-ALK construct
[10] = system: EML4-ALK R1275Q BaF3 cells; assay: BaF3 stables cell viability (WST-1); details: read-out: BaF3 Stables IC50 nM R1275Q; EML4-ALK construct
[11] = 3 days, WST-1, read-out: GTx-U937 IC50
[12] = 3 days, WST-1, read-out: U937 IC50
[13] = Individual Data Points (% Inhibition)

CC(Oc1cc(-c2cnn(C3CCNCC3)c2)cnc1N)c1c(Cl)ccc(F)c1Cl (racemic) [PF2341066, crizotinib, reference compound]
IC50 (U937 lymphoma cells; read-out: GTx-U937 IC50 (uM)): 1.67 µM | IC50 (U937 lymphoma cells; read-out: U937 IC50(μM)): 1.67 µM | IC50 (SUDHL-1 lymphoma cells; read-out: GTx-SUDHL-1 IC50 (uM)): 0.132 µM | IC50 (SUDHL-1 lymphoma cells; read-out: SUDHL-1 IC50(μM)): 0.132 µM | IC50 (NB-1 neuroblastoma cells; read-out: GTx-NB-1 IC50 (uM)): 0.167 µM | IC50 (NB-1 neuroblastoma cells; read-out: NB-1 IC50(μM)): 0.167 µM | Papp A→B at 2 h, 10 μM [1]: < 0.2 ×10⁻⁶ cm/s | Papp B→A at 2 h, 10 μM [1]: 50.7 ×10⁻⁶ cm/s | Papp (10−6 cm/sec) A to B (Caco-2 cells; listed as Pfizer): >0.2 10−6 cm/sec | Papp (10−6 cm/sec) A to B (Caco-2 cells; listed as Pfizer (PF2341066)): <0.2 10−6 cm/sec | Papp (10−6 cm/sec) B to A (Caco-2 cells; basolateral pH 7.4, 2 h): 50.7 10−6 cm/sec | MRT ([2]; iv, 10 mg/kg I.V.): 1.88 h | Cmax ([2]; po, 10 mg/kg P.O.): 58.3 ng/mL | Tmax ([2]; po, 10 mg/kg P.O.): 5.25 h

COc1cc([C@@H]2c3cc4c(cc3[C@H](O)[C@H]3COC(=O)[C@@H]23)OCO4)cc(OC)c1OC (racemic) [PPP, reference compound]
IC50 (ALK; read-out: ALK IC50): > 10000 nM | IC50 (ALK; read-out: GTx-ALK IC50): > 10000 nM | IC50 (INSR; read-out: GTx-IRK IC50): > 10000 nM | IC50 (K299 lymphoma cells; read-out: GTx-K299 IC50): 196 nM | IC50 (K299 lymphoma cells; read-out: K299 IC50): 196 nM | IC50 (U937 lymphoma cells; [11]): 0.138 µM | IC50 (U937 lymphoma cells; [12]): 0.138 µM

C[C@@H](Cc1c(F)c(F)cc(F)c1F)Nc1cc[nH]c(=O)c1-c1nc2cc3c(cc2[nH]1)CN(CCN(C)C)C3=O (single isomer, unassigned) [Compound 1 R isomer]
cell free activity (in words) (ALK (WT)): inactive | IC50 (EML4-ALK BaF3 cells; Mus musculus, BaF3, read-out: BaF3 Stables IC50 nM EML4-ALK): 1060 nM

C[C@@H](Cc1c(F)c(F)cc(F)c1F)Nc1cc[nH]c(=O)c1-c1nc2cc3c(cc2[nH]1)C(=O)N(CCN(C)C)C3=O [Compound 2, (S)-6-(2-(Dimethylamino)ethyl)-2-(2-oxo-4-((1-(2,3,5,6-tetrafluorophenyl)propan-2-yl)amino)-1,2-dihydropyridin-3-yl)imidazo[4,5-f]isoindole-5,7(1H,6H)-dione]
IC50 (ALK; read-out: ALK (nM) IC50): 14 nM | IC50 (ALK; read-out: ALK IC50): 14 nM | IC50 (TrkA; read-out: TrKA IC50): 12 nM | IC50 (TrkA; read-out: TrkA (nM) IC50): 12.2 nM | IC50 (ROS): 0.436 nM | IC50 (RET): 25.8 nM | IC50 (cMET): 14 nM | IC50 (K299 lymphoma cells; read-out: K299 IC50): 1920 nM | IC50 (U937 lymphoma cells; [12]): > 10 µM | IC50 (SUDHL-1 lymphoma cells; 3 days, WST-1, read-out: SUDHL-1 IC50): 2.74 µM | IC50 (NB-1 neuroblastoma cells; 3 days, WST-1, read-out: NB-1 IC50): 0.666 µM | efflux ratio at 2 h, 10 μM ([1]; Caco-2, Caco-2): > 17.8 | Papp A→B at 2 h, 10 μM [1]: < 0.2 ×10⁻⁶ cm/s | Papp B→A at 2 h, 10 μM [1]: 3.6 ×10⁻⁶ cm/s | IC50 [3]: > 30000 nM

C[C@@H](Cc1c(F)c(F)cc(F)c1F)Nc1cc[nH]c(=O)c1-c1nc2cc3c(cc2[nH]1)CN(CCN1CCCC1)C3=O [Compound 3]
Individual Data Points (% Inhibition) ([4]; 0.3 µM): 11.2% | Individual Data Points (% Inhibition) ([4]; 3 µM): 49.7% | Individual Data Points (% Inhibition) ([4]; 10 µM): 70.8% | Individual Data Points (% Inhibition) ([4]; 30 µM): 81.7% | inhibition at 5 min, 0.3 µM (hERG potassium channel; [13]): 13.2% | inhibition at 5 min, 3 µM (hERG potassium channel; [13]): 49.1% | inhibition at 5 min, 10 µM (hERG potassium channel; [13]): 75.7% | inhibition at 5 min, 30 µM (hERG potassium channel; [13]): 87.2% | inhibition at 5 min, 0.3 µM (hERG potassium channel; Mean % hERG Inhibition): 12.2% | inhibition at 5 min, 3 µM (hERG potassium channel; Mean % hERG Inhibition): 49.4% | inhibition at 5 min, 10 µM (hERG potassium channel; Mean % hERG Inhibition): 73.3% | inhibition at 5 min, 30 µM (hERG potassium channel; Mean % hERG Inhibition): 84.4% | IC50 [3]: 3170 nM

C[C@@H](Cc1cc(F)cc(F)c1F)Nc1cc[nH]c(=O)c1-c1nc2cc3c(cc2[nH]1)CN(CCN(C)C)C3=O [Compound 31]
IC50 (ALK; read-out: ALK IC50): 1 nM | IC50 (IGF1R): 299 nM | IC50 (INSR; read-out: IRK IC50): 578 nM | IC50 (TrkA; read-out: TrKA IC50): 4 nM | IC50 (K299 lymphoma cells; read-out: K299 IC50): 154 nM | IC50 (U937 lymphoma cells; [12]): 2.2 µM | half-life at 0.5 μM [5]: 0.484 h | microsomal CLint at 0.5 μM (in vitro [6]; pH 7.4, Human LM-P1 CL (ul/min/mg)): < 5.8 µL/min/mg | half-life at 0.5 μM (in vitro [6]; pH 7.4, Human LM-P1 Half-life (min)): > 2 h | half-life at 0.5 μM (in vitro [7]; pH 7.4): 8.7 min | microsomal CLint at 0.5 μM (in vitro [7]; pH 7.4, Rat LM-P1 CL (ul/min/mg)): 79.9 µL/min/mg

Cc1ccc(F)cc1CC(C)Nc1cc[nH]c(=O)c1-c1nc2cc3c(cc2[nH]1)CN(C)C3=O (stereo not shown) [Compound 44, 2-(4-(1-(5-Fluoro-2-methylphenyl)propan-2-ylamino)-2-oxo-1,2-dihydropyridin-3-yl)-6-methyl-6,7-dihydroimidazo[4,5-f]isoindol-5(1H)-one]
IC50 (ALK; read-out: GTx-ALK IC50): 37 nM | IC50 (TrkA; read-out: GTx-TrKA IC50): 4 nM | IC50 (TrkB): 4 nM | IC50 (TrkC): 1 nM | IC50 (K299 lymphoma cells; read-out: GTx-K299 IC50): 798 nM | IC50 (U937 lymphoma cells; [11]): > 3 µM | IC50 (SUDHL-1 lymphoma cells; 3 days, WST-1, read-out: GTx-SUDHL-1 IC50): 0.829 µM

(S)-6-(1-Methylpiperidin-4-yl)-2-(2-oxo-4-(1-(2,3,5,6-tetrafluorophenyl)propan-2-ylamino)-1,2-dihydropyridin-3-yl)-6,7-dihydroimidazo[4,5-f]isoindol-5(3H)-one [Compound 4]
IC50 (ALK; read-out: ALK (nM) IC50): 9.81 nM | IC50 (ALK; read-out: GTx-ALK IC50): 10 nM | IC50 (TrkA; read-out: TrkA (nM) IC50): 5 nM | Rat LM-P1 Half-life [8]: >2 h | IC50 (EML4-ALK BaF3 cells; read-out: BaF3 Stables IC50 nM EML4-ALK, EML4-ALK parent construct): 143 ± 6 nM | IC50 [9]: 283 ± 43 nM | IC50 [10]: 288 ± 20 nM
